# Ends that are not written are not given here.
# Experiments:
# [1] = test system: tubulin tyrosination cycle in rat pheochromocytoma cells (PC12); assay: Cell-based tubulin tyrosination cycle assay in PC12 cells (confocal microscopy, ELISA); conditions: 2 hr
# Excerpt: Changes in the tubulin tyrosination cycle were used to study the effects of NAP on microtubule dynamics (Gozes and Littauer, Nature. 276:411-413 (1978)). This cycle includes the slow removal of the C-terminal tyrosine of microtubule alpha tubulin, resulting in Glu-tubulin and the fast re-addition of tyrosine (Tyr) to soluble alpha-tubulin in a reaction requiring ATP. […] A cell-based assay for anti-microtubule activity that relies on the properties above allows the identification of both microtubule-destabilizing and microtubule-stabilizing agents. The assay allows assessment of the relative degree of stable microtubule versus dynamic microtubules (Vassal et al., J Biomol Screen, 11: 377-389 (2006)) using confocal microscopy as well as quantitative Enzyme-Linked Immunosorbent Assay (ELISA).
# Rat pheochromocytoma cells (PC12) were grown in Dulbecco's modified eagles medium (DMEM) supplemented with 5% fetal bovine serum and 10% donor horse serum 1% penicillin—streptomycin, 1% L-Glutamine (Beit Haemek, Israel) in an atmosphere of 5% CO2 and 95% air at 37° C. […] Cells were seeded on 96, 48 or 24 well plates in 100, 300 or 500 μl of medium volumes respectively and allowed to grow for 48 hr.
# In short, medium was aspirated and cells were incubated for 3 min with 100, 300 or 500 μl warm MTSBT (Pipes pH 6.8 80 mM, EGTA 4 mM, MgCl2 1 mM, Triton X-100 0.5% v/v) buffer followed by 6 min with 100, 300 or 500 μl cold methanol (−20° C.). Blocking followed a re-hydration in cold TBST (NaCl 0.15 M, Tris-Cl pH 7.4, Triton X-100 0.1% v/v) followed by 5% non fat milk in TBST 10 min at room temp or −50 μg/ml of Goat IgG in AbDil [TBST+2% bovine serum albumin (Sigma, Rehovot Israel)] 10 min at room temp. For microtubule and nuclear staining, 50 μl (per well) of rat monocloncal antibodies detecting tyrosinated tubulin (YL1/2, Abcam, Cambridge, UK) and rabbit polyclonal antibodies detecting glutaminated tubulin (Abcam, Cambridge, UK) at 1:1000 dilution were added. After a 2 hr (37° C.) incubation the cells were washed twice with TBST or TBS and 50 μl per well of secondary goat anti-rat coupled by Cynine 3—Cy3 (1:1000), Cy2 goat anti rabbit (1:1000) (Jackson ImmunoResearch, West Grove, Pa., U.S.A), and Hoechst 33258 (Sigma) 1 μg/ml were added. Following one hour incubation at 37° C. and 3 washes in TBST or TBS, fluorescence was measured using Tecan Microplate fluorescent reader (Neoteck scientific instrumentation, Switzerland) infinite F200 and Magellan software version 6.3.
# For visual inspection, cells were seeded on microscope cover slips, mounted on slides and inspected using confocal microscopy as before (Divinski et al. (2006)). […]
# [2] = test system: microtubules (tubulin and tau); assay: Transmission electron microscopy of microtubules from mixtures of tubulin, tau and NAP; format: biochemical
# Procedure: FIGS. 3A-E show electron microscopy studies were carried out on mixtures of tubulin, tau, and NAP. […] FIGS. 3A and 3C are 25,000× magnification; FIGS. 3B and 3D are 200,000× magnification. […] Additional electron microscopy studies were carried out on mixtures of NAP (1 pM, lanes 4,5,6. […]), tubulin 6 μM (lanes1,4, FIG. 3E) or 10 μM (lanes 2,3,5,6, FIG. 3E) and tau. Tubulin was obtained from Cytoskeleton (Denver, Colo., USA) and tau (0.7 μM) was purified from recombinant cDNA obtained from Professor Linda Amos (Kar et al., Embo J, 22: 70-77 (2003).). […] The box plot represents 3 different experiments (control vs. NAP-treated). Each experiment consists of either three or four repeats. P<0.001. The density of the microtubules was estimated by counting 20-23 fields in each of the experimental samples.
# Transmission electron microscopy was carried out to identify and quantitate microtubule size and appearance in the presence and absence of NAP (in the microtubule pellets described above). Grids were stained with […].
# beta III tubulin = molecular target: T1, beta III tubulin (Homo sapiens, UniProt Q13509); assay: Microtubule pelleting assay, western blot with beta III tubulin antibodies; format: biochemical; conditions: NAP 1 pM, tubulin 10 μM, tau 2.5 μM; vs absence of NAP
# T1 construct: purchased Cytoskeleton (Denver, Colo., USA)
# Procedure: FIG. 7 illustrates the effect of NAP (1 pM) on beta III tubulin precipitation (10 μM) with tau (2.5 μM) during microtubule (MT) assembly. The experiment was carried out as in FIG. 5, except that beta III antibodies were used. S=supernatant; P=pellet. The reduction of beta III tubulin in the pellet was significant (P<0.05). Beta III tubulin is enriched in neurons (Banerjee et al., J. Biol. Chem. 265: 1794-1799 (1990); Joshi and Cleveland, Cell Motil. Cytoskeleton 16:159-163 (1990)).
# Densitometric scanning of the western blots (e.g. FIG. 7) including 8 independent experiments are depicted on the figures. S=supernatant; P=pellet; western blot anti beta III tubulin, 1:1, 400. The reduction reached significance (*P<0.05).
# (§1) Tubulin, tau and NAP were prepared as described in Example 1. The microtubule pelleting assay was also carried out as in Example 1.
# The resulting pellet was subjected to 12.0% polyacrylamide gel containing SDS (Kar et al. (2003)). Gels were either stained for proteins (Coomassie Brilliant Blue) or subjected to western analysis to specifically identify and quantitate tubulin in the microtubule pellet. […]
# beta tubulin = assay: Microtubule pelleting assay, western blot with TUB2.1 beta tubulin antibody; format: biochemical; conditions: NAP 1 pM, tubulin 10 μM, tau ~2.5 μM; 6 independent experiments
# Procedure: FIG. 5 illustrates the effect of NAP on beta tubulin precipitation (10 μM) with tau (2.5 μM) during microtubule (MT) assembly. NAP (1 pM) incubation apparently reduces beta tubulin in the microtubule pellet. The monoclonal antibody used (TUB2.1) interacts specifically with beta tubulin species. Gozes and Barnstable, Proc Natl Acad Sci USA, 79: 2579-2583 (1982). Blots were performed as before (Divinski et al., J Neurochem, 98: 973-984 (2006)). S=supernatant; P=pellet.
# Densitometric scanning of the western blots (e.g. FIG. 5) including 6 independent experiments are depicted on the figure. S=supernatant; P=pellet; western blot antitubulin 2.1, 1:1, 400.
# as §1
# The resulting pellet was subjected to 12.0% polyacrylamide gel containing SDS (Kar et al. (2003)). Gels were either stained for proteins (Coomassie Brilliant Blue) or subjected to western analysis to specifically identify and quantitate tubulin in the microtubule pellet. Three different antibodies were used, rabbit anti tubulin (Gozes et al. (1977)), mouse monoclonal antibodies that prefers neuronal beta tubulin species, TUB2.1 (Boss et al., Brain Res, 433:199-218 (1987); Gozes and Barnstable (1982)) and tubulin beta III (neuronal enriched) antibodies as before (Divinski et al. (2006)). […]
# tubulin [3] = assay: Microtubule pelleting assay, western blot with polyclonal tubulin antibodies; format: biochemical; conditions: NAP 1 pM, tubulin 10 μM, tau ~2.5 μM
# Procedure: FIG. 9 illustrates the effect of NAP on tubulin precipitation (10 μM) with tau (2.5 μM) during microtubule (MT) assembly. The experiment was carried out as in FIG. 5, except that polyclonal tubulin antibodies were used. (Gozes et al., FEBS Lett. 73(1):109-14 (1977)).
# Densitometric scanning of the western blots (e.g. FIG. 9) including 6 independent experiments are depicted on the figure. S=supernatant; P=pellet; western blot anti tubulin, 1:1, 400-2000.
# as §1
# The resulting pellet was subjected to 12.0% polyacrylamide gel containing SDS (Kar et al. (2003)). Gels were either stained for proteins (Coomassie Brilliant Blue) or subjected to western analysis to specifically identify and quantitate tubulin in the microtubule pellet. Three different antibodies were used, rabbit anti tubulin (Gozes et al. (1977)), mouse monoclonal antibodies that prefers neuronal beta tubulin species, TUB2.1 (Boss et al., Brain Res, 433:199-218 (1987); Gozes and Barnstable (1982)) and tubulin beta III (neuronal enriched) antibodies as before (Divinski et al. (2006)). Western blotting was performed as before (Divinski et al. (2006)).
# [4] = molecular target: T2, tau-three microtubule binding domain repeats (Homo sapiens, UniProt P10636); assay: Dot blot analysis of peptide binding to tau; conditions: peptide 10^−3M spotted, 2 μM tau
# T2 construct: made in house
# Procedure: For Dot Blot analysis, 5 μl of each sample [vasoactive intestinal peptide VIP (Dangoor et al., Regul Pept, 137: 42-49 (2006)); negative control and NAP 10^−3M) was applied onto the nitrocellulose membrane (Schleicher & Schuell, Dassel, Germany), and was left to dry (2 hr, room temperature). The membrane was further incubated with 2 μM tau-three microtubule binding domain repeats (1.5 hr, room temperature). The non-specific sites were blocked by soaking in a blocking solution (10 mM Tris, 6 mM NaCl, 0.05% Tween 20) that was supplemented with 5% low-fat milk (1 hr at room temperature). The membrane was incubated with primary antibody (tau5 antibody 1:1000), dissolved in 5% milk in blocking solution (12 hours at 4 C). The membrane was then washed three times with the blocking solution (3×10 min), incubated with secondary antibody conjugated with horseradish peroxidase (HRP) (1 hr at room temperature) and washed again three times with blocking solution (10 min×3). The membrane was incubated with ECL reagent (Western blotting detection system; Amersham Biosciences) for 1 min, covered and exposed Biomax Light Film (Kodak, Rochester, N.Y., USA). […]
# tau = tau (Homo sapiens, UniProt P10636); assay: Affinity chromatography on NAP-affinity column with tau-specific western blot; format: binding
# cell cultures = conditions: cited from earlier work
# normal aging rats = conditions: intranasal administration; cited from earlier work
# ischemic injury = conditions: after ischemic injury; cited from earlier work
# [5] = test system: closed head injury in mice; conditions: cited from earlier work
# [6] = test system: model of fetal alcohol syndrome; conditions: in vivo, ip; cited from earlier work
# tau hyperphosphorylation = conditions: animal models; cited from earlier work
# tubulin [7] = conditions: cited from earlier work
# microtubule formation = conditions: cited from earlier work
# NIH 3T3 fibroblasts = conditions: cited from earlier work
# [8] = test system: MAP-2 expression in neuronal cells; conditions: cited from earlier work
# [9] = in vivo; cited from earlier work
# tubulin [10] = assay: Tubulin-NAP binding
# [11] = test system: mixed neuroglial cultures from newborn rat cortex; assay: Neuroprotection against beta-amyloid 1-42 in mixed neuroglial cultures, MAP2 ELISA; format: cell-based; conditions: 0.25 μM beta-amyloid 1-42, 5 days, n=10 per data point
# T2 sequence (P10636 1-410 isoform P10636-5): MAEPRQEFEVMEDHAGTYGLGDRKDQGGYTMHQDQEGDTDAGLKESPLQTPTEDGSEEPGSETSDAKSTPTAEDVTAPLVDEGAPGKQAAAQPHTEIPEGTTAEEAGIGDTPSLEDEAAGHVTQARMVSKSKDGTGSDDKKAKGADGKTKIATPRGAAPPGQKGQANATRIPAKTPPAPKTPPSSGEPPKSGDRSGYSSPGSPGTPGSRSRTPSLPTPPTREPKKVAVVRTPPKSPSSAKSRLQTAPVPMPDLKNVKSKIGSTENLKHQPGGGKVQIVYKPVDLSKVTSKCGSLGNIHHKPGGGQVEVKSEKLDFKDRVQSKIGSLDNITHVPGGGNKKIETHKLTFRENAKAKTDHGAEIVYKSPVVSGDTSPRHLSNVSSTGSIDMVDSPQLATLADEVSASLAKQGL
# Chain of tau (P10636 1-441 isoform P10636-8): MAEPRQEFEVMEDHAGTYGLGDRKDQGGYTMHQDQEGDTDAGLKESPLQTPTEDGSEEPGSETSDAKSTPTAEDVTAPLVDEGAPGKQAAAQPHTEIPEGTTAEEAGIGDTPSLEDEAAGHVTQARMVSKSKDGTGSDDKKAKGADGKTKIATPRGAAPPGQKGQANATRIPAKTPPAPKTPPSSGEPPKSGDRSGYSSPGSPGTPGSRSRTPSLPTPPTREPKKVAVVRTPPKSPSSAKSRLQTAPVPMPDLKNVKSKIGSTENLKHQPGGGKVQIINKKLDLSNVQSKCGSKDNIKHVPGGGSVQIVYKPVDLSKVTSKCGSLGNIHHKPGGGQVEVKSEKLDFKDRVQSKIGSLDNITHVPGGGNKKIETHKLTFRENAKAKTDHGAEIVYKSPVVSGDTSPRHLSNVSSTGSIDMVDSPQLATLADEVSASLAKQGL
# T1 sequence (Q13509 whole entry): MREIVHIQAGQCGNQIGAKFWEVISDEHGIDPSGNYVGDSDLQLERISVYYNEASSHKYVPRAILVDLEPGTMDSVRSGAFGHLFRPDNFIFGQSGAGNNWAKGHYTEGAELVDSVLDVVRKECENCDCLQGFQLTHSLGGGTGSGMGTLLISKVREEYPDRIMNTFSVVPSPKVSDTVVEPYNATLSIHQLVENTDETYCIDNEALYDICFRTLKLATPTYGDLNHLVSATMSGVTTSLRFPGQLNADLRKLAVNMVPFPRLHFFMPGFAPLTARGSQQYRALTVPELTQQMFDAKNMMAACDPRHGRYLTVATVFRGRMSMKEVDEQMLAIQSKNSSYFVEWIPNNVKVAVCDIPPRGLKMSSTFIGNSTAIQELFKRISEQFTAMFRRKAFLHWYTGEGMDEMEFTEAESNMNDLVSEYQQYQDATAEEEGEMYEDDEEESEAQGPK
# T1 sequence (Q71U36 whole entry partner): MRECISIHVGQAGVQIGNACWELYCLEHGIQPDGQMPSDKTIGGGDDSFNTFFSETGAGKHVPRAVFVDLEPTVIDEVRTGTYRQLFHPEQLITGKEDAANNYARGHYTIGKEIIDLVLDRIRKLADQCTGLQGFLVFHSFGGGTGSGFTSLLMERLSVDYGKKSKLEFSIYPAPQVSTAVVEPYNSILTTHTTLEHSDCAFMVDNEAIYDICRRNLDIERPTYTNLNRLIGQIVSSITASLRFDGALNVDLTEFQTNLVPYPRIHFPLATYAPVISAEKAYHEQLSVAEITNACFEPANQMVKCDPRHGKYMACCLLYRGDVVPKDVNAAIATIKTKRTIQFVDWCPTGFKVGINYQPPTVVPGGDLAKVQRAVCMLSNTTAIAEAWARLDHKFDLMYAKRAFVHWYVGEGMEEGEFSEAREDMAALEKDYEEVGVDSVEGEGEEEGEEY
compound,measurement,setting,value
"CC(=O)O[C@H]1C(=O)[C@@]2(C)[C@H]([C@H](OC(=O)c3ccccc3)[C@]3(O)C[C@H](OC(=O)[C@H](O)[C@@H](NC(=O)c4ccccc4)c4ccccc4)C(C)=C1C3(C)C)[C@]1(OC(C)=O)CO[C@@H]1C[C@@H]2O [paclitaxel, reference compound]",detyrosinated tubulin,[1]; paclitaxel 5 μM,significantly increased detyrosinated tubulin
Asn-Ala-Pro-Val-Ser-Ile-Pro-Gln [NAP],microtubule density (electron microscopy),"[2]; NAP 1 pM, tubulin 6 or 10 μM, tau 0.7 μM, vs control w/o NAP",increased microtubule density
same,curves and microtubule length (electron microscopy),[2]; NAP-treated samples vs control w/o NAP,increases
same,decrease in tubulin beta III in the microtubule pellet,beta III tubulin,approximately 2 fold
same,reduction of beta tubulin in the microtubule pellet (TUB2.1 antibody),beta tubulin,not significant
same,decrease of tubulin in the microtubule pellet (polyclonal anti-tubulin antibodies),tubulin [3],no significant decrease
same,binding to tau (dot blot),[4],can bind directly to tau
same,binding to tau (affinity chromatography),tau,binds to tau
same,dose response for activation of the tyrosination cycle (ELISA),[1]; 10^−19 M—10^−7M,biphasic dose response curve
same,activity on the tubulin tyrosination cycle,[1]; NAP 10^−11M,not active
same,tyrosinated and detyrosinated alpha tubulin,[1]; NAP 10^−15M,significantly increased tyrosinated and detyrosinated alpha tubulin
same,neuroprotective activity against a wide variety of toxins,cell cultures,neuroprotective activity at femtomolar concentrations
same,performance in the Morris water maze,normal aging rats,improved performance
same,infarct volume and motor function deficits,ischemic injury,reduced infarct volume and motor function deficits
same,damage caused by closed head injury,[5],reducing damage
same,fetal death after intraperitoneal injection of alcohol,[6],inhibited
same,tau hyperphosphorylation,tau hyperphosphorylation,protected against tau hyperphosphorylation
same,binding to tubulin,tubulin [7],binds tubulin
same,microtubule formation (turbidity),microtubule formation,stimulate microtubule formation
same,interaction with NIH 3T3 fibroblasts or other dividing cells,NIH 3T3 fibroblasts,does not interact
same,MAP-2 expression,[8],increases MAP-2 expression
same,crossing of the blood-brain barrier,[9],can cross the blood-brain barrier
SALLRSIPA [ADNF-9],effect on tubulin-NAP binding,tubulin [10],diminish tubulin-NAP binding
"TAPVPMPD [a NAP-like, tau-derived peptide]",concentrations at which neuronal survival was enhanced (MAP2 staining),[11],10^−19-10^−9 M
"vasoactive intestinal peptide [VIP, reference compound]",binding to tau (dot blot),[4],does not interact

# Reference: US8377875B2, “Therapeutics based on tau/microtubule dynamics” (Ramot at Tel-Aviv University Ltd., priority 2007, dated 2013)
